Data published in US20090143761A1, “AGENT DELIVERY SYSTEM AND USES OF SAME” (T[…] COMPANY, LLC, priority 2005, published 2009).
Entries after “also recorded” stand apart in the source; their conditions may differ.

Assays:
[1] = cited from earlier work
[2] = Stability of primaquine after exposure to iontophoresis, thin layer chromatography; conditions: silica gel TLC, n-butanol:acetic acid:water (5:3:2)
[3] = In-vitro transdermal delivery of primaquine patch across human epidermal membranes with iontophoresis
[4] = excised rabbit pinna skin; cited from earlier work
humans = conditions: cited from earlier work
[5] = 52.8 mM and 105.6 mM donor
[6] = lithium concentration of 158.4 mM, iontophoresis, mice
Description: First, the total charge delivered to the animal during the course of the experiment was determined.
The animal model employed was that of the SKH-1 male mouse, 6 weeks old, obtained from Charles River Laboratories. The mice arrived the morning of the experiments and were used within three hours of their arrival.
Due to the fragility of the iontophoresis pad application and electrode attachment, the mice had to be restrained during the experiments. To accomplish this, a commercial mouse restrainer was purchased from Kent Scientific and modified with two holders on either side of the restrainer. The holders were placed over existing access holes in the restrainer such that spring loaded electrodes could be positioned within the holder.
The mice were given a low dosage of Halothane to allow them to be weighed and positioned in the restrainer so that there was minimal risk of the electrode pads being kicked or scraped off of the patch as the mouse was being positioned. The Halothane was administered by saturating a paper towel that had been placed at the bottom of a glass desiccator jar. The jar was placed in an exhaust fume hood prior to opening the Halothane bottle. This gave a saturated Halothane environment, in a well-ventilated area, and allowed the effects of the anesthesia to be closely monitored. […]

[7] = in vivo; cited from earlier work
[8] = patients who are prescribed lithium; cited from earlier work
[9] = cyclic voltammagrams
Uremic rats = conditions: intermittent administration; cited from earlier work
plasma cholinesterase = target: T1, plasma cholinesterase (Homo sapiens, UniProt P06276); test: Selective inhibition of cholinesterase activity in plasma samples; assay type: biochemical; conditions: quinidine 20 μM; BTC vs other substrate
T1 construct: confirming the capacity of the BTC substrate to detect cholinesterase activity in plasma; from tissue; host or cells: plasma
T1 sequence (P06276 29-602): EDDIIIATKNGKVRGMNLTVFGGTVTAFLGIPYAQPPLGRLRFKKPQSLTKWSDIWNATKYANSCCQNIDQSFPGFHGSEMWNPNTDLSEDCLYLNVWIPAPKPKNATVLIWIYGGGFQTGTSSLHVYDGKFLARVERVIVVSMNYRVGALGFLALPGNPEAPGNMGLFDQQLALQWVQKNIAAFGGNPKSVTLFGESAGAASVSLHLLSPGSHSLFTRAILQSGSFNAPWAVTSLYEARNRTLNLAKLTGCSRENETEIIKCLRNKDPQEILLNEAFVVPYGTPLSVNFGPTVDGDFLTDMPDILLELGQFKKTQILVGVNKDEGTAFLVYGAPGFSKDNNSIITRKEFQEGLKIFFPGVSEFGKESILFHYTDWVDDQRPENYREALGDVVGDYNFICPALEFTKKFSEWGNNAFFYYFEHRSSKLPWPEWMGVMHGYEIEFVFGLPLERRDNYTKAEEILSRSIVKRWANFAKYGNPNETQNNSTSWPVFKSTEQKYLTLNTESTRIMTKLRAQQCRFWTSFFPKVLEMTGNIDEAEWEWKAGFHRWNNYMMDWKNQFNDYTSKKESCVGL

[10] = Calculated diffusion and mass transfer coefficients in membranes of different thickness; conditions: Urea in 5.15% agar gel vs Urea, 1 mm layer
Description: A simplified model can be developed to account for the transport of molecules out of the skin and through the sampling chamber. The model consists of diffusion through the skin, which can be approximated by diffusion through a semi-porous protein matrix membrane and then diffusion into a bulk solution. The concentration profile in the membrane and in the bulk solution may not be consistent, in which case a partition coefficient can be used to relate the transport of molecules from the membrane to the bulk solution. The use of an iontophoretic device can, by nature of the process, produce an electric field. […]
The bulk phase diffusivity needs to be adjusted to take into account the winding path through a porous matrix. The effective diffusivity is calculated from the bulk diffusivity, void fraction, and the tortuosity. The mass transfer coefficient can be calculated from the effective diffusivity and the membrane thickness. The flux of molecules in the presence of an electrical charge can be calculated with the Nernst-plank equation.
To illustrate the effect of diffusion through a porous matrix a few calculations were performed as an example. Assuming a protein layer of 1 mm, the mass transfer coefficients were calculated for Urea (0.88 microns/s) and for Urea in a 5.15% agar gel (0.47 microns/s). […]

[11] = oral administration of tablets; cited from earlier work

## COc1cc(NC(C)CCCN)c2ncccc2c1 (stereo not shown) [primaquine]
[1]; passive delivery
  share of the 10 mg dose delivered passively each hour: Approximately 5%
[1]; within 24 hours, to achieve therapeutic plasma concentrations
  amount of primaquine delivered transdermally: 10 mg
[2]
  stability of the primaquine molecule after exposure to iontophoresis (TLC of receptor compartment contents): intact primaquine is present; also recorded: there is more than one species of molecule present
[3]; epidermal membrane, receptor PBS pH 7.4, no current applied
  passive diffusion of primaquine before and after iontophoresis: Minimal passive diffusion
[3]; in 40 minutes
  amount of primaquine delivered using electrotransport: 160 µg

## NC(=O)[C@@H]1CCCN1C(=O)[C@H](Cc1cnc[nH]1)NC(=O)[C@@H]1CCC(=O)N1 [TRH, Thyrotropin-releasing hormone]
[4]
  pulsed vs continuous current iontophoretic flux: the pulsed iontophoretic flux exceeded that obtained with a continuous current

## CNC1(C)C2CCC(C2)C1(C)C (stereo not shown) [mecamylamine, Mecamylamine]
humans
  effect on self-reported effects of alcohol: reduces the self-reported stimulant and euphoric effects of alcohol

## O=C([O-])[O-].[Li+].[Li+] [lithium, lithium carbonate]
[5]
  effect of donor compartment lithium carbonate concentration on receiver compartment lithium concentration: caused an equivalent increase in the receiver compartment lithium concentration
[6]
  serum concentration of lithium: approximately 0.2 mM
[7]
  plasma elimination half-life: 12 to 27 h
[8]
  patients who experience some adverse effects: More than 80%

## CN1CCCC1c1cccnc1 (stereo not shown) [nicotine]
[9]
  voltage at which nicotine is oxidized: ~1 volt

## PTH(1-37): parathyroid hormone fragment given intermittently to Uremic rats (AVSEIQLMHNLGKHLASVERMQWLRKKLQDVHNFVSL; Parathyroid hormone; UniProt P04089 32-68, looked up, fragment)
Uremic rats
  effect on growth and bone mineral density: improves growth and bone mineral density

## C=C[C@H]1C[N@@]2CC[C@H]1C[C@@H]2[C@@H](O)c1ccnc2ccc(OC)cc12 [quinidine]
Plasma cholinesterase
  inhibitory effect on cholinesterase activity in plasma samples: the inhibitory effect was observed only when BTC was used

## NC(N)=O [Urea]
[10]
  decrease of mass transfer by addition of a gel matrix: 47%

## COC(=O)C(c1ccccc1)C1CCCCN1 (stereo not shown) [Methylphenidate]
[11]
  bioavailability: approximately 30%
